Assays:
Type in all cases: binding
ADORA2B = target: T1, ADORA2B (Homo sapiens, UniProt P29275); assay: NanoBRET screen HiBiT-ADORA2B in HEK293
T1 construct: purchased Promega (in-house HiBiT-GPCR construct library, NanoBRET)
T1 sequence (P29275 1-332): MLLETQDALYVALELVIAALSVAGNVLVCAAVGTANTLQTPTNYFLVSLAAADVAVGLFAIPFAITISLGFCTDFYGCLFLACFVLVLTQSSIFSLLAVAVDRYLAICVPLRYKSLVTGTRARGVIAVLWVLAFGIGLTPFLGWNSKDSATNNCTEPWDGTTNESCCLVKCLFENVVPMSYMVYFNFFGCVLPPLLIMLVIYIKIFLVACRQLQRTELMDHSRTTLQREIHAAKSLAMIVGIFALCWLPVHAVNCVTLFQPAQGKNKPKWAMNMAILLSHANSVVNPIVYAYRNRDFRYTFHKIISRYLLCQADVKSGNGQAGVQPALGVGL
Experimental: (§1) Each tracer candidate was screened across the entire library of HiBiT-GPCR constructs using NanoBRET as the detection modality. As depicted in Figure 4A, the specificity of interactions was evaluated through decrease in BRET due to competitive displacement of a bound tracer by excess parental compound. Each tracer was analyzed for binding to each HiBiT-GPCR fusion in the absence and in the presence of competing parental compound. Briefly, HEK293 cells were transfected with HiBiT-GPCR constructs diluted into promoterless DNA to reduce expression and maximize translocation to the cell surface. Each tracer candidate was then screened at concentrations of 1 μM and 0.1 μM across cells expressing these fusions. Cells were treated for 1.5 h with tracer either alone or in the presence of 20 μM competing parental compound (i.e., control). BRET was measured upon addition of purified LgBiT and subsequent complementation with HiBiT genetically fused to a GPCR. The specificity of interactions was assessed through a decrease in BRET signal due to competitive displacement of the bound tracer. To further gauge the robustness of these interactions, the fold response over the control (i.e., BRETtracer/BRETcontrol) was calculated. We chose a 1.5-fold response, which translates to ≥7-fold signal over noise as the minimal threshold required to score an interaction as positive. […]. Below we highlight the screening results obtained for our exemplary fluorescent tracers based on Clozapine, Amitriptyline and AZD1283.
(§2) HiBiT-GPCR DNA constructs were diluted in 10 mM Tris pH 8 to a final concentration of 0.01 μg/μL, arrayed in 96-well plates and stored at −20 °C. For transfection, HEK293 cells were suspended in Opti-MEM (without phenol red) supplemented with 2% fetal bovine serum (Seradigm) and 100 units/mL penicillin–streptomycin (Gibco) at a final concentration of 220,000 cells/mL and dispensed into white 96-well plates at 90 μL/well. Subsequent transfections and screens were carried using an Agilent Bravo Automated Liquid Handling Platform. First, the 96-well HiBiT DNA arrays were diluted 25-fold in Opti-MEM (without serum or phenol red) to a final concentration of 0.0004 μg/μL and 20 μL of the diluted DNAs were transferred into new 96-well plates. Next, promoterless carrier DNA (1 μg/μL) was diluted 25-fold (0.04 μg/μL) and then dispensed into the diluted arrays at 20 μL/well. Following brief mixing, Viafect transfection reagent (Promega) diluted 16-fold into Opti-MEM was dispensed into the plates at 40 μL/well. After mixing by pipetting, plates were incubated for 10 min on the pipetting station deck. The DNA-transfection reagent complexes were then added to plates containing cells. To facilitate the screen, 10 μL of DNA-transfection reagent complexes were added in duplicates to the top 4 and bottom 4 rows, resulting in two identical 48-well arrays per plate. Plates with transfected cells were incubated for 18–20 h at 37 °C/5% CO2. A screen of each tracer across the entire library using two different concentrations requires duplicate plates of transfected cells. Depending on the number of tracers being screened, transfections can be scaled up using the same ratios. The next day, for each tracer, four 20× screening solutions in tracer dilution buffer (Promega) were prepared: two duplicates at final concentration of 20 μM and two duplicates at a final concentration of 2 μM. A competing unmodified compound was added to one of each duplicate at a final concentration of 400 μM. The four resulting solutions were diluted 4-fold in Opti-MEM without serum or phenol red to generate 5× solutions (5 µM and 0.5 µM tracer +/− 100 μM competing compound). To screen the library, a BioTek MultiFlo FX liquid dispenser was used to dispense 22.5 µL of tracer solution to the top 4 rows and 22.5 µL tracer + competing compound solution to the 4 bottom rows. Plates were briefly mixed on an orbital shaker and incubated for 1.5 h at room temperature. […]

FZD7 = target: T2, FZD7 (Homo sapiens, UniProt O75084); assay: NanoBRET screen HiBiT-FZD7 in HEK293
T2 construct: purchased Promega (in-house HiBiT-GPCR construct library, NanoBRET)
Experimental: as §1, §2

GHSR = target: T3, GHSR (Homo sapiens, UniProt Q92847); assay: NanoBRET screen HiBiT-GHSR in HEK293
T3 construct: purchased Promega (in-house HiBiT-GPCR construct library, NanoBRET)
T3 sequence (Q92847 whole entry): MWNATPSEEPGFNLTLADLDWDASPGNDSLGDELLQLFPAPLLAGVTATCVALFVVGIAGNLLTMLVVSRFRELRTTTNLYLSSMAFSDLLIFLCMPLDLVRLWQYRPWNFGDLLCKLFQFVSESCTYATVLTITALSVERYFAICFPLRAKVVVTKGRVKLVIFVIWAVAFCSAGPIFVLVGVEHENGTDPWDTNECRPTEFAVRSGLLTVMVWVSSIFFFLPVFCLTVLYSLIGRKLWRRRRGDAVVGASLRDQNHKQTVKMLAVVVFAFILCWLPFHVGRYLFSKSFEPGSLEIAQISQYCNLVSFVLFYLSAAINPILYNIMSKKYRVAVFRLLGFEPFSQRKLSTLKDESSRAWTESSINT
Experimental: as §1, §2

[1] = tracer at 0.1μM, listed as amitriptyline-b-2-NB590
[2] = tracer at 1μM, listed as amitriptyline-b-2-NB590

Compound | NanoBRET Fold Response (ADORA2B; ADORA2B, tracer 0.1μM) | NanoBRET Fold Response (ADORA2B; ADORA2B, tracer 1μM) | NanoBRET Fold Response (FZD7; FZD7, tracer 0.1μM) | NanoBRET Fold Response (FZD7; FZD7, tracer 1μM) | NanoBRET Fold Response (GHSR; GHSR, tracer 0.1μM) | NanoBRET Fold Response (GHSR; GHSR, tracer 1μM) | further results
Cc1nc2n(c(=O)c1CCN1CCC(c3noc4cc(F)ccc34)CC1)CCCC2OC(=O)NCCOCCOCCOCCOCCNC(=O)CCc1ccc2n1[B-](F)(F)[N+]1=C(c3ccc[nH]3)C=CC1=C2 (stereo not drawn) [Risperidone-2-NB590] | 0.94 | 1.05 | 0.98 | 1.04 | 1.06 | 1.02 | –
CCOC(=O)c1cc(C#N)c(N2CCC(C(=O)NS(=O)(=O)Cc3ccccc3/C=C/C(=O)NCCNC(=O)CCc3ccc4n3[B-](F)(F)[N+]3=C(c5ccc[nH]5)C=CC3=C4)CC2)nc1C [AZD1283-1-NB590] | – | – | – | – | – | – | NanoBRET Fold Response (ADORA2B; ADORA2B, 0.1μM): 0.94; NanoBRET Fold Response (ADORA2B; ADORA2B, 1μM): 0.93; NanoBRET Fold Response (FZD7; FZD7, 0.1μM): 1.03; NanoBRET Fold Response (FZD7; FZD7, 1μM): 1.04; NanoBRET Fold Response (GHSR; GHSR, 0.1μM): 1.01; NanoBRET Fold Response (GHSR; GHSR, 1μM): 1.04
Cc1cc2c(s1)Nc1ccccc1N=C2N1CCN(CCCNC(=O)CCOCCOCCOCCOCCNC(=O)CCc2ccc3n2[B-](F)(F)[N+]2=C(c4ccc[nH]4)C=CC2=C3)CC1 [Olanzapine-a-2-NB590] | 0.92 | 1.04 | 1.03 | 0.95 | 0.96 | 0.98 | –
COc1ccccc1N1CCN(CCCCN2C(=O)c3ccc(CNC(=O)CCOCCNC(=O)c4ccc(CNC(=O)CCc5ccc6n5[B-](F)(F)[N+]5=C(c7ccc[nH]7)C=CC5=C6)cc4)cc3C2=O)CC1 [NAN-190-3-NB590] | 0.94 | 1.30 | 0.94 | 1.27 | 0.86 | 1.06 | –
CC(C)N(CC[C@H](c1ccccc1)c1cc(CCNC(=O)CCOCCOCCOCCOCCNC(=O)CCc2ccc3n2[B-](F)(F)[N+]2=C(c4ccc[nH]4)C=CC2=C3)ccc1O)C(C)C [Tolterodine-2-NB590] | 0.81 | 0.97 | 1.00 | 1.12 | 0.95 | 1.11 | –
CN(C)CCC=C1c2ccccc2CCc2ccc(C(=O)NCCNC(=O)CCOCCOCCOCCOCCNC(=O)CCc3ccc4n3[B-](F)(F)[N+]3=C(c5ccc[nH]5)C=CC3=C4)cc21 [Amitriptyline-b-2-NB590] | – | – | – | – | – | – | NanoBRET Fold Response (ADORA2B; [1]): 1.40; NanoBRET Fold Response (FZD7; [1]): 1.16; NanoBRET Fold Response (FZD7; [2]): 1.16; NanoBRET Fold Response (GHSR; [1]): 1.07; NanoBRET Fold Response (GHSR; [2]): 0.97
O=C(CCOCCOCCOCCOCCNC(=O)CCc1ccc2n1[B-](F)(F)[N+]1=C(c3ccc[nH]3)C=CC1=C2)NCCCN1CCN(C2=Nc3ccccc3Oc3ccc(Cl)cc32)CC1 [Loxapine-a-2-NB590] | 1.41 | 0.62 | 1.03 | 1.05 | 0.97 | 1.09 | –
CN(C)CCC=C1c2ccccc2CCc2ccc(C(=O)NCCNC(=O)CCOCCOCCOCCOCCNC(=O)CCc3ccc4n3[B-](F)(F)[N+]3=C(c5ccc[nH]5)C=CC3=C4)cc21 [Amitriptyline-a-2-NB590] | – | – | – | – | – | – | NanoBRET Fold Response (ADORA2B; tracer at 0.1μM): 1.10; NanoBRET Fold Response (ADORA2B; tracer at 1μM): 0.93; NanoBRET Fold Response (FZD7; tracer at 0.1μM): 0.89; NanoBRET Fold Response (FZD7; tracer at 1μM): 0.97; NanoBRET Fold Response (GHSR; tracer at 0.1μM): 0.97; NanoBRET Fold Response (GHSR; tracer at 1μM): 1.04
O=C(CCc1ccc2n1[B-](F)(F)[N+]1=C(c3ccc[nH]3)C=CC1=C2)NCCOCCOCCNC(=O)OCCOCCN1CCN(C2=Nc3ccccc3Sc3ccccc32)CC1 [Quetiapine-a-2-NB590] | 0.80 | 1.02 | 1.04 | 0.91 | 0.97 | 0.77 | –
COc1ccccc1N1CCN(CCCCN2C(=O)c3ccc(CNC(=O)CCOCCOCCOCCOCCNC(=O)CCc4ccc5n4[B-](F)(F)[N+]4=C(c6ccc[nH]6)C=CC4=C5)cc3C2=O)CC1 [NAN-190-2-NB590] | 0.94 | 0.64 | 1.00 | 1.03 | 1.01 | 1.02 | –
CN1CCN(C2=Nc3cc(Cl)ccc3N(CC(=O)NCCOCCOCCOCCOCCNC(=O)CCc3ccc4n3[B-](F)(F)[N+]3=C(c5ccc[nH]5)C=CC3=C4)c3ccccc32)CC1 [Clozapine-c-2-NB590] | – | – | – | – | – | – | NanoBRET Fold Response (ADORA2B; ADORA2B, 0.1μM tracer): 1.07; NanoBRET Fold Response (ADORA2B; ADORA2B, 1μM tracer): 0.91; NanoBRET Fold Response (FZD7; FZD7, 0.1μM tracer): 0.98; NanoBRET Fold Response (FZD7; FZD7, 1μM tracer): 1.00; NanoBRET Fold Response (GHSR; GHSR, 0.1μM tracer): 1.00; NanoBRET Fold Response (GHSR; GHSR, 1μM tracer): 1.04
COc1ccc2[nH]c(-c3ccc(CNC(=O)CCOCCOCCOCCOCCNC(=O)CCc4ccc5n4[B-](F)(F)[N+]4=C(c6ccc[nH]6)C=CC4=C5)cc3)c(CCNC(C)=O)c2n1 [AzomelatoninICO9-2-NB590] | – | – | – | – | – | – | NanoBRET Fold Response (ADORA2B; 0.1μM tracer): 0.82; NanoBRET Fold Response (ADORA2B; 1μM tracer): 1.21; NanoBRET Fold Response (FZD7; 0.1μM tracer): 1.29; NanoBRET Fold Response (FZD7; 1μM tracer): 0.84; NanoBRET Fold Response (GHSR; 0.1μM tracer): 0.89; NanoBRET Fold Response (GHSR; 1μM tracer): 0.90
O=C(CCOCCOCCOCCOCCNC(=O)CCc1ccc2n1[B-](F)(F)[N+]1=C(c3ccc[nH]3)C=CC1=C2)NCCCN1CCN(C2=Nc3cc(Cl)ccc3Nc3ccccc32)CC1 [Clozapine-a-2-NB590] | – | – | – | – | – | – | NanoBRET Fold Response (ADORA2B; ADORA2B, 0.1μM tracer): 1.01; NanoBRET Fold Response (ADORA2B; ADORA2B, 1μM tracer): 0.67; NanoBRET Fold Response (FZD7; FZD7, 0.1μM tracer): 1.00; NanoBRET Fold Response (FZD7; FZD7, 1μM tracer): 0.98; NanoBRET Fold Response (GHSR; GHSR, 0.1μM tracer): 0.95; NanoBRET Fold Response (GHSR; GHSR, 1μM tracer): 1.06
CCCn1c(=O)c2[nH]c(-c3ccc(OCC(=O)NCCNC(=O)CCOCCNC(=O)c4ccc(CNC(=O)CCc5ccc6n5[B-](F)(F)[N+]5=C(c7ccc[nH]7)C=CC5=C6)cc4)cc3)nc2n(CCC)c1=O [XAC-3-NB590] | 8.09 | 3.98 | 1.09 | 1.01 | 1.07 | 1.02 | –
O=C(CCc1ccc2n1[B-](F)(F)[N+]1=C(c3ccc[nH]3)C=CC1=C2)NCc1ccc(C(=O)NCCOCCOCCNCC(O)COc2cccc3ccccc23)cc1 (stereo not drawn) [Propranolol-3-NB590] | – | – | – | – | – | – | NanoBRET Fold Response (ADORA2B; ADORA2B, 0.1μM): 1.10; NanoBRET Fold Response (ADORA2B; ADORA2B, 1μM): 0.95; NanoBRET Fold Response (FZD7; FZD7, 0.1μM): 1.01; NanoBRET Fold Response (FZD7; FZD7, 1μM): 1.04; NanoBRET Fold Response (GHSR; GHSR, 0.1μM): 0.98; NanoBRET Fold Response (GHSR; GHSR, 1μM): 0.97
CN(CCC=C1c2ccccc2CCc2ccccc21)C(=O)CCOCCOCCOCCOCCNC(=O)CCc1ccc2n1[B-](F)(F)[N+]1=C(c3ccc[nH]3)C=CC1=C2 [Amitriptyline-e-2-NB590] | – | – | – | – | – | – | NanoBRET Fold Response (FZD7; tracer at 1μM): 1.02

From paper PMC8151276, “An Integrated Approach toward NanoBRET Tracers for Analysis of GPCR Ligand Engagement” (Molecules, 2021)
